Reference: the supplement of paper PMC13380429

Experiments:
Details in all cases: 72 h
U2OS [1] = assay: relative viability EC50 (midpoint between 100% and the lowest measured viability); higher = less toxic
HepG2 [2] = assay: as above
Vero E6 [3] = assay: as above
Calu-3 [4] = assay: as above
U2OS [5] = assay: drug sensitivity score (DSS) for viability; higher = more toxic; extreme values may be limits of the assay
HepG2 [6] = assay: as above
Vero E6 [7] = assay: as above
Caco-2 [8] = assay: as above
Calu-3 [9] = assay: as above
U2OS [10] = assay: cell viability relative to DMSO; higher = less toxic
HepG2 [11] = assay: as above
Vero E6 [12] = assay: as above
Caco-2 [13] = assay: as above
Calu-3 [14] = assay: as above
Caco-2 [15] = assay: relative viability EC50 (midpoint between 100% and the lowest measured viability); higher = less toxic

Structure (SMILES) | relative viability EC50 (U2OS [1]) [µM] | relative viability EC50 (HepG2 [2]) [µM] | relative viability EC50 (Vero E6 [3]) [µM] | relative viability EC50 (Calu-3 [4]) [µM] | drug sensitivity score (U2OS [5]) | drug sensitivity score (HepG2 [6]) | drug sensitivity score (Vero E6 [7]) | drug sensitivity score (Caco-2 [8]) | drug sensitivity score (Calu-3 [9]) | cell viability (U2OS [10]; 1 nM) [%] | cell viability (U2OS [10]; 10 nM) [%] | cell viability (U2OS [10]; 100 nM) [%] | cell viability (U2OS [10]; 1000 nM) [%] | cell viability (U2OS [10]; 10000 nM) [%] | cell viability (HepG2 [11]; 1 nM) [%] | cell viability (HepG2 [11]; 10 nM) [%] | cell viability (HepG2 [11]; 100 nM) [%] | cell viability (HepG2 [11]; 1000 nM) [%] | cell viability (HepG2 [11]; 10000 nM) [%] | cell viability (Vero E6 [12]; 1 nM) [%] | cell viability (Vero E6 [12]; 10 nM) [%] | cell viability (Vero E6 [12]; 100 nM) [%] | cell viability (Vero E6 [12]; 1000 nM) [%] | cell viability (Vero E6 [12]; 10000 nM) [%] | cell viability (Caco-2 [13]; 1 nM) [%] | cell viability (Caco-2 [13]; 10 nM) [%] | cell viability (Caco-2 [13]; 100 nM) [%] | cell viability (Caco-2 [13]; 1000 nM) [%] | cell viability (Caco-2 [13]; 10000 nM) [%] | cell viability (Calu-3 [14]; 1 nM) [%] | cell viability (Calu-3 [14]; 10 nM) [%] | cell viability (Calu-3 [14]; 100 nM) [%] | cell viability (Calu-3 [14]; 1000 nM) [%] | cell viability (Calu-3 [14]; 10000 nM) [%] | relative viability EC50 (Caco-2 [15]) [µM]
CCc1cnc(N2CCC(c3nc(COc4ccc(-n5cnnn5)cc4)cs3)CC2)nc1 [MBX-2982] | > 10 | 3.13 | > 10 | > 10 | 0 | 3.5 | 0.9 | 2.1 | 0 | 103 | 94.8 | 96.7 | 96.2 | 93.7 | 97.4 | 94.6 | 93.2 | 99.7 | 36 | 102 | 106 | 105 | 97.2 | 80.4 | 95.8 | 107 | 86.9 | 96.1 | 67.5 | 97.5 | 92 | 109 | 102 | 103 | –
C[C@H](NC(=O)Cc1cc(F)cc(F)c1)C(=O)N[C@H](C(=O)OC(C)(C)C)c1ccccc1 [DAPT] | > 10 | – | > 10 | > 10 | 0 | – | 0 | 0 | 0 | 106 | 106 | 105 | 97.7 | 101 | – | – | – | – | – | 98.3 | 108 | 103 | 105 | 102 | 108 | 109 | 116 | 99.8 | 96.1 | 105 | 100 | 112 | 91.1 | 103 | > 10
NNC(=O)CSc1nc2scc(-c3ccccc3)c2c(=O)n1-c1ccccc1 | > 10 | – | > 10 | > 10 | 0 | – | 0 | 0 | 0 | 97.7 | 95.8 | 98.3 | 103 | 102 | – | – | – | – | – | 94.1 | 97.1 | 94.8 | 90.5 | 109 | 100 | 97.7 | 93.1 | 93.6 | 108 | 91.9 | 93.2 | 95.3 | 103 | 101 | > 10
CC(=O)Oc1c(C)cc(OCC(O)CNC(C)C)c(C)c1C (configuration not stated) [metipranolol] | > 10 | > 10 | > 10 | > 10 | 0 | 1.5 | 1.6 | 1.3 | 0 | 99.1 | 97.3 | 96.2 | 93.9 | 93.8 | 101 | 102 | 105 | 84 | 93.3 | 103 | 107 | 94.6 | 85.8 | 97.5 | 73.8 | 84.6 | 102 | 98.7 | 70.3 | 94.6 | 89.8 | 97.7 | 96.1 | 92.9 | –
Clc1ccc2c(NCCNc3ccnc4cc(Cl)ccc34)ccnc2c1 [NSC-5844] | > 10 | – | > 10 | > 10 | 0 | – | 0 | 0.4 | 0 | 97.3 | 96.6 | 100 | 94.9 | 96.7 | – | – | – | – | – | 88 | 95.2 | 96.2 | 94.5 | 101 | 98.6 | 102 | 106 | 117 | 76.9 | 97.8 | 98.3 | 103 | 96.9 | 96.1 | > 10
Oc1ccc(C2CNCCc3c2cc(O)c(O)c3Cl)cc1 (configuration not stated) [fenoldopam] | > 10 | > 10 | > 10 | > 10 | 0 | 0 | 0 | 6.6 | 0 | 103 | 101 | 99.1 | 102 | 103 | 104 | 102 | 95.3 | 105 | 94.8 | 101 | 99.4 | 97.3 | 103 | 96.7 | 96 | 87 | 80.6 | 76.6 | 73.7 | 96.5 | 110 | 105 | 109 | 107 | –
O=C(NCNC(=O)NC1C(=O)NC(=O)N1CO)NC1C(=O)NC(=O)N1CO (configuration not stated) [imidurea] | > 10 | > 10 | – | > 10 | 0 | 0.3 | – | 0 | 0 | 103 | 97.3 | 102 | 98.3 | 102 | 104 | 97.3 | 89.8 | 98.1 | 82.9 | – | – | – | – | – | 90.7 | 95.4 | 98.7 | 98 | 103 | 94.4 | 98.1 | 104 | 103 | 95.6 | > 10
CCCOC(=O)c1ccccc1 [propyl-benzoate] | – | > 10 | > 10 | > 10 | – | 0 | 0 | – | 0 | – | – | – | – | – | 98.7 | 98.2 | 94.7 | 93 | 94.4 | 94.3 | 94.6 | 91.8 | 90.3 | 101 | – | – | – | – | – | 98.5 | 90.6 | 98.2 | 99.1 | 102 | –
NCc1c[nH]c(=S)n1[C@H]1CCc2c(F)cc(F)cc2C1 [nepicastat] | > 10 | > 10 | > 10 | > 10 | 0 | 0 | 0 | – | 0 | 101 | 105 | 99 | 106 | 97.2 | 100 | 95.2 | 93.8 | 102 | 96.2 | 105 | 104 | 106 | 96.7 | 108 | – | – | – | – | – | 87.7 | 95.3 | 98.6 | 103 | 97.6 | –
N#Cc1ccccc1OCC(O)CNCCNC(=O)Nc1ccccc1 (configuration not stated) | > 10 | > 10 | – | > 10 | 0 | 0 | – | 0 | 0 | 99.5 | 94.3 | 95.3 | 95.7 | 97.1 | 108 | 102 | 110 | 107 | 93.6 | – | – | – | – | – | 101 | 102 | 91.4 | 99.5 | 101 | 100 | 94.7 | 102 | 92.8 | 92.4 | > 10
CC(C)(C)c1ccc(/C=C/C(=O)Nc2ccc3c(c2)OCCO3)cc1 [AMG-9810] | > 10 | 3.43 | > 10 | > 10 | 0 | 3.4 | 0 | 2.9 | 1.4 | 96.4 | 97.4 | 98.2 | 96.7 | 89.7 | 98.3 | 101 | 97.9 | 103 | 33.1 | 98.3 | 102 | 96 | 97 | 89.4 | 94.9 | 92.8 | 99.3 | 90.4 | 67.8 | 103 | 98.3 | 101 | 94.5 | 78.8 | –
COc1cc2c(cc1OCCCN1CCCC1)N=C(N)C21CCC1 [A-366] | > 10 | – | > 10 | > 10 | 0 | – | 0 | 0 | 0 | 103 | 102 | 98.9 | 105 | 95.2 | – | – | – | – | – | 101 | 98.1 | 93.6 | 94.4 | 97.8 | 91.2 | 95.4 | 97.5 | 104 | 92 | 97.3 | 106 | 102 | 103 | 95.4 | > 10
O=C(Nc1ccncc1)C(=O)c1cn(Cc2ccc(Cl)cc2)c2ccccc12 [indibulin] | > 10 | > 10 | – | > 10 | 0 | 0 | 2 | 0 | 0 | 111 | 99 | 97.2 | 95.4 | 90.9 | 91.6 | 107 | 94.9 | 91.3 | 94.5 | 75.1 | 104 | 79.4 | 97.3 | 66.1 | 75 | 84 | 94.9 | 82.9 | 92.2 | 97.9 | 95 | 110 | 102 | 104 | > 10
CC(C)(OCc1nn(Cc2ccccc2)c2ccccc12)C(=O)O [bindarit] | – | > 10 | > 10 | > 10 | – | 0 | 0 | 0 | 0 | – | – | – | – | – | 97.2 | 96.4 | 100 | 99.2 | 100 | 102 | 105 | 100 | 107 | 91.4 | 104 | 101 | 108 | 102 | 96.8 | 99 | 95.5 | 106 | 95.1 | 104 | > 10
COc1ccc2c(NC(=O)Nc3cccc(C(F)(F)F)n3)ccnc2c1 | > 10 | > 10 | – | > 10 | 0 | 0 | – | 0 | 0 | 102 | 96.6 | 106 | 101 | 104 | 108 | 108 | 93.8 | 105 | 95.6 | – | – | – | – | – | 97.7 | 106 | 100 | 95.5 | 93.4 | 97.6 | 99 | 96.1 | 94.8 | 93.6 | > 10
CCCCCCN(CCCCCC)C(=O)Cc1c(-c2ccc(F)cc2)[nH]c2ccccc12 [FGIN-1-27] | > 10 | > 10 | > 10 | > 10 | 0 | 0 | 0 | 2.2 | 0 | 98.5 | 102 | 103 | 100 | 92.3 | 104 | 95.2 | 94.3 | 106 | 96.6 | 98.6 | 94.5 | 94 | 95.2 | 92.8 | 99.5 | 99.6 | 89.2 | 94.3 | 68.6 | 96 | 99.2 | 99.8 | 102 | 89 | –
